Common to all, as to format: in vivo
Assay [1] concerns cat fleas (Ctenocephalides felis). As to the kind of experiment: Flea egg hatching after oral application to cats (systemic control). The settings on record: cat host, oral 20 mg/kg in cat feed. The procedure:
Seven days after infestation, the weights of two cats of were measured and Compound #1 was applied orally to each of said two cats in an amount of 20 mg per one kilogram of the weight of the cat by incorporating Compound #1 into cat feed and having the cat to eat it. After application, the cats were placed in said steel cages.
The flea eggs collected onto the removable bottom tray were retrieved 6 and 14 days after the date of application. About 60 eggs were chosen from each batch of retrieved eggs. They were transferred to a plastic dish and then preserved under the conditions wherein the temperature was 26° C. and the humidity was at 90%. After 5-7 days of preservation, the eggs were observed about hatching.
The same procedure was repeated with another two cats except that cat feed comprising no Compound #1 was applied.
The percentages of hatching for applied cats “T” and the percentage of hatching for non-applied cats “C” were derived from the equation, respectively:
(§1) T=(the amount of hatched eggs)÷(the amount of retrieved eggs)×100
(§2) C=(the amount of hatched eggs)÷(the amount of retrieved eggs)×100
(§3) The obtained values of “T” and “C” were then used to determine the APH by employing the equation 1 mentioned above Example 1.

The test system is the same in assay [2]. Briefly: Flea egg hatching after oral application to mouse (systemic control). The settings on record: mouse host, oral 20 mg/kg in corn oil; for adjusted percentage concerning the loss of hatchings (%) 5 days after: flea eggs retrieved 5 days after application; for adjusted percentage concerning the loss of hatchings (%) 14 days after: flea eggs retrieved 14 days after application; for adjusted percentage concerning the loss of hatchings (%) 30 days after: flea eggs retrieved 30 days after application. On the procedure: By using an appropriate sonde for the mouse, oral application to the mouse was performed at the rate of about 10 mL of the composition per kilogram body weight of the mouse. The said mouse was then stabilized with a wire netting, and was placed in a plastic container (depth 15 cm×width 15 cm×height 60 cm). Thirty (10 male and 20 female) starved adult cat fleas (Ctenocephalides felis) were freed into the said plastic container and the produced f lea eggs were retrieved f ive days later. A suitable amount (about 60 eggs) was transferred to a plastic dish and, preserved under the conditions wherein the temperature was 26° C. and the humidity was at 90%. After 2 days of preservation, the hatching conditions were observed. Afterwards, the treated mouse was allowed to inhabit a standard pet cage with food and water. Ten days after the application, the mouse was stabilized, placed in a plastic container, and was exposed to cat fleas in the same way as stated above. The produced flea eggs were then retrieved 14 days after the application, preserved in the conditions stated above, and had the hatching conditions observed. Twenty-six days after the application, the mouse was stabilized, placed in a plastic container, and was exposed to cat fleas in the same way as stated above. The produced flea eggs were then retrieved 30 days after the application of the composition, preserved in the conditions stated above, and had the hatching conditions observed. The same procedure was repeated without the application of the composition. The percentages of hatching for applied mouse “T” and the percentage of hatching for non-applied mouse “C” were derived from the equation, respectively: T=(the amount of hatched eggs)÷(the amount of retrieved eggs)×100 C=(the amount of hatched eggs)÷(the amount of retrieved eggs)×100 The acquired values of “T” and “C” were used to determine the adjusted percentage concerning the loss of hatchings by employing equation 1. The acquired values of “T” and “C” were utilized in the following equation: The adjusted percentage concerning the loss of hatchings (%)=(C−T)÷C×100 to determine the adjusted percentage concerning the loss of hatchings (hereinafter, recited as APH). […] In other words, “APH” looks at the amount of eggs that were unable to hatch rather than the amount of eggs that were able to hatch.

Assay [3] has the same test system. Briefly: Flea egg hatching after oral application to dogs (systemic control). The settings on record: beagle dog host, oral 10 mg/kg in dog feed. The procedure: One day after infestation, the weights of three dogs were measured and Compound #1 was applied orally to each of said three dogs in an amount of 10 mg per one kilogram of the weight of the dog by incorporating Compound #1 into dog feed and having the dog to eat it. After application, the dogs were placed in said steel cages.
The flea eggs collected onto the removable bottom tray were retrieved 4 and 5 days after the application. About 60 eggs were chosen from each batch of retrieved eggs. They were transferred to a plastic dish and then preserved under the conditions wherein the temperature was 26° C. and the humidity was at 90%. After 5-7 days of preservation, the eggs were observed about hatching.
The same procedure was repeated with another three dogs except that dog feed comprising no Compound #1 was applied. The percentages of hatching for applied dogs “T” and the percentage of hatching for non-applied dogs “C” were derived from the equation, respectively:
as §1, §2, §3

Several values for one entry are separate records, joined by “and”; a condition that tells them apart may be missing. Equal values may be shown once.

For `O=C(NC(=O)c1c(F)cccc1F)Nc1ccc(OC(F)(F)C(F)C(F)(F)F)cc1F` (stereo not drawn) [Compound #1, 1-(2,6-difluorobenzoyl)-3-[2-fluoro-4-(1,1,2,3,3,3-hexafluoropropoxy)phenyl]urea], the “average APH after 6 days” value in assay [1] (flea eggs retrieved 6 days after application) worked out at 81.9%. In addition, in assay [1] (flea eggs retrieved 14 days after application, 20 mg/kg), the “average APH after 14 days” value was 79.6% and 80%. Also, in assay [2], the “adjusted percentage concerning the loss of hatchings (%) 5 days after” value amounted to 100%, the “adjusted percentage concerning the loss of hatchings (%) 14 days after” value is 100% and the “adjusted percentage concerning the loss of hatchings (%) 30 days after” value is given as 93%. In assay [3] (flea eggs retrieved 4 days after application), the “average APH after 4 days” value stood at 86.5%. The “average APH after 5 days” value in assay [3] (flea eggs retrieved 5 days after application, 10 mg/kg) is 76.6% and 77%.

With `O=C(NC(=O)c1c(F)cccc1F)Nc1ccc(OC(F)(F)C(F)F)cc1` [Compound B, 1-(2,6-difluorobenzoyl)-3-[4-(1,1,2,2-tetrafluoroethoxy)phenyl]urea], in assay [2], the “adjusted percentage concerning the loss of hatchings (%) 5 days after” value turned out to be 83% and the “adjusted percentage concerning the loss of hatchings (%) 14 days after” value amounted to 0%.

Regarding `O=C(NC(=O)c1c(F)cccc1F)Nc1cccc(Oc2ncc(C(F)(F)F)cc2Cl)c1` [Compound C, 1-(2,6-difluorobenzoyl)-3-[3-(3-chloro-5-trifluoromethylpyridin-2-yloxy)phenyl]urea], in assay [2], the “adjusted percentage concerning the loss of hatchings (%) 5 days after” value was determined as 96%, the “adjusted percentage concerning the loss of hatchings (%) 14 days after” value came to 77% and the “adjusted percentage concerning the loss of hatchings (%) 30 days after” value is on record as 11%.

For the origin of these results see patent publication US20010044470A1, “METHOD TO CONTROL ANIMAL ECTO-PARASITES” (priority 1997, published 2001).
